These compounds were tested against TNFα (Homo sapiens (Human), UniProt P01375) (assay: TNF induced HEK-Blue assay). Conditions: TNFα 0.5 ng/ml; HEK-Blue-CD40L cells, NF-κB-driven secreted alkaline phosphatase reporter; 18 h.
Sequence of TNFα (P01375 77-233): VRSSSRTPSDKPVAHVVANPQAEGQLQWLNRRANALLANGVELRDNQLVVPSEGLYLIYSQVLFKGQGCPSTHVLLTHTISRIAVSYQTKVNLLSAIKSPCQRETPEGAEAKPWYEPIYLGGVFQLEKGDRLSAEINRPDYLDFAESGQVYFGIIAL
Format: cell-based
Procedure: Test compounds serially diluted in DMSO were plated in an assay plate (Labcyte, Cat. #LP-0200) at final concentrations ranging from 0.004 μM to 25 μM. TNFα (final concentration 0.5 ng/ml) or CD40L (final concentration 30 ng/ml) in assay buffer [DMEM, 4.5 g/l glucose (Gibco, Cat. 21063-029), 10% FBS (Sigma, F4135), 1% Penicillin-Streptomycin (Gibco, Cat. 15140-122), 1% Anti-Anti (Gibco, Cat. 15240-112) and 2 mM L-glutamine (Gibco, Cat. 25030-081)] was then added to the assay plate. After a 30 minute pre-incubation at 37° C. and 5% CO2, HEK-Blue-CD40L cells (InvivoGen, Cat. Code hkb-cd40) containing a NF-κB-driven secreted alkaline phosphatase reporter gene were seeded into the assay plate at a density of 20,000 cells per well. This plate was then incubated for 18 h at 37° C. and 5% CO2. Secreted alkaline phosphatase expression was measured using QUANTI-Blue (InvivoGen, Cat. Code rep-qb1) according to manufacturer's specifications and the assay plate was read on a PerkinElmer Envision at 620 nm.
Inhibition data for the test compound over a range of concentrations was plotted as percentage inhibition of the test compound (100%=maximum inhibition). IC50 values were determined after correcting for background [(sample read−mean of low control)/(mean of high control−mean of low control)] where by the low control is DMSO without stimulation and high control is DMSO with stimulation. The IC50 is defined as the concentration of test compound which produces 50% inhibition and was quantified using the 4 parameter logistic equation to fit the data.
Table 5 lists the IC50 values measured in the TNF induced HEK-Blue assay for Examples 1 to 40 of this invention.
Compound `CC(C)(O)c1ccc(-c2ccc3nc4n(c3n2)C(c2ccccc2OC(F)F)CC4)cc1` (single isomer, unassigned) [Example 26 (e2), 2-(4-(8-(2-(difluoromethoxy)phenyl)-7,8-dihydro-6H-pyrrolo[2′,1′:2,3]imidazo[4,5-b]pyridin-2-yl)phenyl)propan-2-ol] has an IC50 of 10 to 25 µM. In the case of `CC(C)(O)c1ccc(-c2ccc3nc4n(c3n2)C(c2c(F)cccc2C(F)(F)F)CC4)cc1` (single isomer, unassigned) [Example 32 (e1), 2-(4-(8-(2-fluoro-6-(trifluoromethyl)phenyl)-7,8-dihydro-6H-pyrrolo[2′,1′:2,3]imidazo[4,5-b]pyridin-2-yl)phenyl)propan-2-ol], the IC50 is reported as less than 1 µM. In the case of `CC(C)(O)c1ccc(-c2ccc3nc4n(c3n2)C(c2ccccc2C2CC2)CC4)cc1` (single isomer, unassigned) [Example 33 (e1), 2-(4-(8-(2-cyclopropylphenyl)-7,8-dihydro-6H-pyrrolo[2′,1′:2,3]imidazo[4,5-b]pyridin-2-yl)phenyl)propan-2-ol], the IC50 is reported as less than 1 µM. `CC(C)(O)c1ccc(-c2ccc3nc4n(c3n2)C(c2ccccc2C2CC2)CC4)cc1` (single isomer, unassigned) [Example 33 (e2), 2-(4-(8-(2-cyclopropylphenyl)-7,8-dihydro-6H-pyrrolo[2′,1′:2,3]imidazo[4,5-b]pyridin-2-yl)phenyl)propan-2-ol] showed an IC50 of 1 to 10 µM. `CC(C)(O)c1ccc(-c2ccc3nc4n(c3n2)C(c2cc(F)ccc2C(F)(F)F)CC4)cc1` (single isomer, unassigned) [Example 34 (e1), 2-(4-(8-(5-fluoro-2-(trifluoromethyl)phenyl)-7,8-dihydro-6H-pyrrolo[2′,1′:2,3]imidazo[4,5-b]pyridin-2-yl)phenyl)propan-2-ol] gave an IC50 of less than 1 µM. In the case of `CC(C)(O)c1ccc(-c2ccc3nc4n(c3n2)C(c2cc(F)ccc2C(F)(F)F)CC4)cc1` (single isomer, unassigned) [Example 34 (e2), 2-(4-(8-(5-fluoro-2-(trifluoromethyl)phenyl)-7,8-dihydro-6H-pyrrolo[2′,1′:2,3]imidazo[4,5-b]pyridin-2-yl)phenyl)propan-2-ol], the IC50 is reported as 1 to 10 µM. In the case of `CC(C)(O)c1ccc(-c2ccc3nc4n(c3n2)C(c2c(F)cccc2C(F)(F)F)CC4O)cc1` (stereo not drawn) [Example 3 (e4), 8-(2-fluoro-6-(trifluoromethyl)phenyl)-2-(4-(2-hydroxypropan-2-yl)phenyl)-7,8-dihydro-6H-pyrrolo[2′,1′:2,3]imidazo[4,5-b]pyridin-6-ol], the IC50 is reported as 1 to 10 µM. `Cc1ccc(C)c(C2CC(O)c3nc4ccc(-c5ccc(C(C)(C)O)cc5)nc4n32)c1` (stereo not drawn) [Example 4 (DM), 8-(2,5-dimethylphenyl)-2-(4-(2-hydroxypropan-2-yl)phenyl)-7,8-dihydro-6H-pyrrolo[2′,1′:2,3]imidazo[4,5-b]pyridin-6-ol] showed an IC50 of less than 1 µM. With `Cc1ccc(C)c(C2CC(O)c3nc4ccc(-c5cnc(C(C)(C)O)nc5)nc4n32)c1` (stereo not drawn) [Example 5 (DM), 8-(2,5-dimethylphenyl)-2-(2-(2-hydroxypropan-2-yl)pyrimidin-5-yl)-7,8-dihydro-6H-pyrrolo[2′,1′:2,3]imidazo[4,5-b]pyridin-6-ol] the IC50 was less than 1 µM. With `Cc1ccc(C)c(C2CC(O)c3nc4ccc(-c5cnc(N6CCOCC6)nc5)nc4n32)c1` (stereo not drawn) [Example 6 (DM), 8-(2,5-dimethylphenyl)-2-(2-morpholinopyrimidin-5-yl)-7,8-dihydro-6H-pyrrolo[2′,1′:2,3]imidazo[4,5-b]pyridin-6-ol] the IC50 was less than 1 µM. `Cc1ccc(C(F)(F)F)cc1C1CC(O)c2nc3ccc(-c4ccc(C(C)(C)O)cc4)nc3n21` (stereo not drawn) [Example 7 (DM), 2-(4-(2-hydroxypropan-2-yl)phenyl)-8-(2-methyl-5-(trifluoromethyl)phenyl)-7,8-dihydro-6H-pyrrolo[2′,1′:2,3]imidazo[4,5-b]pyridin-6-ol] gave an IC50 of 1 to 10 µM. With `CC(C)(O)c1ccc(-c2ccc3nc4n(c3n2)C(c2cc(C(F)(F)F)ccc2C(F)(F)F)CC4O)cc1` (stereo not drawn) [Example 8 (DM), 8-(2,5-bis(trifluoromethyl)phenyl)-2-(4-(2-hydroxypropan-2-yl)phenyl)-7,8-dihydro-6H-pyrrolo[2′,1′:2,3]imidazo[4,5-b]pyridin-6-ol] the IC50 was 1 to 10 µM. `CC(C)(O)c1ccc(-c2ccc3nc4n(c3n2)C(c2ccccc2C2CC2)CC4O)cc1` (stereo not drawn) [Example 9 (e1), 8-(2-cyclopropylphenyl)-2-(4-(2-hydroxypropan-2-yl)phenyl)-7,8-dihydro-6H-pyrrolo[2′,1′:2,3]imidazo[4,5-b]pyridin-6-ol] gave an IC50 of less than 1 µM. `OC1CC(c2ccccc2OC(F)F)n2c1nc1ccc(-c3cnc(N4CCOCC4)nc3)nc12` (stereo not drawn) [Example 10 (DM), 8-(2-(difluoromethoxy)phenyl)-2-(2-morpholinopyrimidin-5-yl)-7,8-dihydro-6H-pyrrolo[2′,1′:2,3]imidazo[4,5-b]pyridin-6-ol] showed an IC50 of less than 1 µM. `CC(C)(O)c1ncc(-c2ccc3nc4n(c3n2)C(c2ccccc2OC(F)F)CC4O)cn1` (stereo not drawn) [Example 11 (e1), 8-(2-(difluoromethoxy)phenyl)-2-(2-(2-hydroxypropan-2-yl)pyrimidin-5-yl)-7,8-dihydro-6H-pyrrolo[2′,1′:2,3]imidazo[4,5-b]pyridin-6-ol] gave an IC50 of less than 1 µM. `CC(C)(O)c1ncc(-c2ccc3nc4n(c3n2)C(c2ccccc2OC(F)F)CC4O)cn1` (stereo not drawn) [Example 11 (e4), 8-(2-(difluoromethoxy)phenyl)-2-(2-(2-hydroxypropan-2-yl)pyrimidin-5-yl)-7,8-dihydro-6H-pyrrolo[2′,1′:2,3]imidazo[4,5-b]pyridin-6-ol] was tested, and the IC50 was 1 to 10 µM. Work on `CC(C)(O)c1ccc(-c2ccc3nc4n(c3n2)C(c2ccccc2OC(F)F)CC4F)cc1` (stereo not drawn) [Example 15 (DM), 2-(4-(8-(2-(difluoromethoxy)phenyl)-6-fluoro-7,8-dihydro-6H-pyrrolo[2′,1′:2,3]imidazo[4,5-b]pyridin-2-yl)phenyl)propan-2-ol] yielded an IC50 of less than 1 µM. `CC(C)(O)c1ccc(-c2ccc3nc4n(c3n2)C(c2ccccc2OC(F)F)CC4F)cc1` (stereo not drawn) [Example 15 (e1), 2-(4-(8-(2-(difluoromethoxy)phenyl)-6-fluoro-7,8-dihydro-6H-pyrrolo[2′,1′:2,3]imidazo[4,5-b]pyridin-2-yl)phenyl)propan-2-ol] showed an IC50 of less than 1 µM. With `CC(C)(O)c1ccc(-c2ccc3nc4n(c3n2)C(c2ccccc2OC(F)F)CC4F)cc1` (stereo not drawn) [Example 15 (e4), 2-(4-(8-(2-(difluoromethoxy)phenyl)-6-fluoro-7,8-dihydro-6H-pyrrolo[2′,1′:2,3]imidazo[4,5-b]pyridin-2-yl)phenyl)propan-2-ol] the IC50 was 10 to 25 µM. Compound `CC(C)(O)c1ncc(-c2ccc3nc4n(c3n2)C(c2ccccc2OC(F)F)CC4F)cn1` (stereo not drawn) [Example 16 (DM), 2-(5-(8-(2-(difluoromethoxy)phenyl)-6-fluoro-7,8-dihydro-6H-pyrrolo[2′,1′:2,3]imidazo[4,5-b]pyridin-2-yl)pyrimidin-2-yl)propan-2-ol] has an IC50 of less than 1 µM. Work on `CC(C)(O)c1ncc(-c2ccc3nc4n(c3n2)C(c2ccccc2OC(F)F)CC4F)cn1` (stereo not drawn) [Example 16 (e2), 2-(5-(8-(2-(difluoromethoxy)phenyl)-6-fluoro-7,8-dihydro-6H-pyrrolo[2′,1′:2,3]imidazo[4,5-b]pyridin-2-yl)pyrimidin-2-yl)propan-2-ol] yielded an IC50 of less than 1 µM. With `CC(C)(O)c1ncc(-c2ccc3nc4n(c3n2)C(c2ccccc2OC(F)F)CC4F)cn1` (stereo not drawn) [Example 16 (e3), 2-(5-(8-(2-(difluoromethoxy)phenyl)-6-fluoro-7,8-dihydro-6H-pyrrolo[2′,1′:2,3]imidazo[4,5-b]pyridin-2-yl)pyrimidin-2-yl)propan-2-ol] the IC50 was 10 to 25 µM. `CC(C)(O)c1ncc(-c2ccc3nc4n(c3n2)C(c2ccccc2OC(F)F)CC4F)cn1` (stereo not drawn) [Example 16 (e4), 2-(5-(8-(2-(difluoromethoxy)phenyl)-6-fluoro-7,8-dihydro-6H-pyrrolo[2′,1′:2,3]imidazo[4,5-b]pyridin-2-yl)pyrimidin-2-yl)propan-2-ol] showed an IC50 of less than 1 µM. `FC(F)Oc1ccccc1C1CC(F)c2nc3ccc(-c4cnc(N5CCOCC5)nc4)nc3n21` (stereo not drawn) [Example 17 (DM), 4-(5-(8-(2-(difluoromethoxy)phenyl)-6-fluoro-7,8-dihydro-6H-pyrrolo[2′,1′:2,3]imidazo[4,5-b]pyridin-2-yl)pyrimidin-2-yl)morpholine] showed an IC50 of less than 1 µM. `COc1ccc(-c2ccc3nc4n(c3n2)C(c2ccccc2OC(F)F)CC4F)cn1` (stereo not drawn) [Example 18 (DM), 8-(2-(difluoromethoxy)phenyl)-6-fluoro-2-(6-methoxypyridin-3-yl)-7,8-dihydro-6H-pyrrolo[2′,1′:2,3]imidazo[4,5-b]pyridine] showed an IC50 of 1 to 10 µM. With `Cn1cc(-c2ccc3nc4n(c3n2)C(c2ccccc2OC(F)F)CC4F)cn1` (stereo not drawn) [Example 19 (e3), 8-(2-(difluoromethoxy)phenyl)-6-fluoro-2-(1-methyl-1H-pyrazol-4-yl)-7,8-dihydro-6H-pyrrolo[2′,1′:2,3]imidazo[4,5-b]pyridine] the IC50 was 1 to 10 µM. For `Cc1ccc(C)c(C2CC(F)c3nc4ccc(-c5cnc(C(C)(C)O)nc5)nc4n32)c1` (stereo not drawn) [Example 20 (DM), 2-(5-(8-(2,5-dimethylphenyl)-6-fluoro-7,8-dihydro-6H-pyrrolo[2′,1′:2,3]imidazo[4,5-b]pyridin-2-yl)pyrimidin-2-yl)propan-2-ol], the IC50 was less than 1 µM.
